Holding throughout (assay): Field foliar treatment test (Test Example 1)
What all share (type): in vivo
What all share (details): foliar spray at 1.0- to 2.0-leaf stage, wettable powder, active ingredient 10 g/a, 21st day from the treatment

In one assay the test system is Brassica juncea. As for the experimental part: (§1) Alluvial soil from a field was put in a resin-made vat having an area of 200 cm^2. After fertilization, the seeds of Echinochloa crus-galli, Brassica juncea, and Ipomoea purpurea were cast on the soil and uniformly covered with the soil. Then, cultivation was continued in a greenhouse, and when the weeds to be tested reached the 1.0- to 2.0-leaf stage, the wettable powder obtained in Formulation Example 1 was diluted with water and a predetermined amount thereof was sprayed uniformly to the weeds by means of a small-sized power pressure spray to give 10 g of the active ingredient per an are. Thereafter, cultivation was further continued in the greenhouse, and the herbicidal effect was examined on the 21st day from the treatment. The results obtained are shown in Table 7 (the compound numbers in Table 7 correspond to those in Table 1 to 6). The herbicidal effect was evaluated in terms of herbicidal rate obtained from the following equation: Herbicidal rate (%)=[1−(Weight of weeds above the ground in a treated plot)/(Weight of weeds above the ground in a non-treated plot)]×100 and was expressed by herbicidal index according to the following criteria. [table]

Another assay deals with Ipomoea purpurea. As for the experimental part: as §1
In the next assay the test system is Echinochloa crus-galli. As to the method: as §1

With `Cc1cc2c(-c3ccccc3OC(F)(F)F)nc(Cl)nc2s1` [5-31], in the assay on Brassica juncea, the “Herbicidal effect Brassica juncea (herbicidal index)” value was 5 (91 to 100). Further, the “Herbicidal effect Ipomoea purpurea (herbicidal index)” value in the assay on Ipomoea purpurea is listed as 5 (91 to 100). The “Herbicidal effect Echinochloa crus-galli (herbicidal index)” value in the assay with Echinochloa crus-galli is listed as 4 (71 to 90).
With `CCCOc1nc(-c2cccc(C(F)(F)F)c2)c2cc(C)sc2n1` [6-25], in the assay with Brassica juncea, the “Herbicidal effect Brassica juncea (herbicidal index)” value is reported as 5 (91 to 100). Further, the “Herbicidal effect Ipomoea purpurea (herbicidal index)” value in the assay on Ipomoea purpurea was 5 (91 to 100). Besides, the “Herbicidal effect Echinochloa crus-galli (herbicidal index)” value in the assay with Echinochloa crus-galli is on record as 4 (71 to 90).
As for `CCCOc1nc(-c2cccc(OC(F)(F)F)c2)c2cc(C)sc2n1` [6-35], the “Herbicidal effect Brassica juncea (herbicidal index)” value in the assay on Brassica juncea is 5 (91 to 100). Further, the “Herbicidal effect Ipomoea purpurea (herbicidal index)” value in the assay with Ipomoea purpurea is reported as 5 (91 to 100). In the assay with Echinochloa crus-galli, the “Herbicidal effect Echinochloa crus-galli (herbicidal index)” value is 5 (91 to 100).
As for `CCCOc1nc(-c2cccc(SC(F)(F)F)c2)c2cc(C)sc2n1` [6-39], the “Herbicidal effect Brassica juncea (herbicidal index)” value in the assay on Brassica juncea is given as 4 (71 to 90). The “Herbicidal effect Ipomoea purpurea (herbicidal index)” value with Ipomoea purpurea was 5 (91 to 100). Besides, in the assay with Echinochloa crus-galli, the “Herbicidal effect Echinochloa crus-galli (herbicidal index)” value is reported as 5 (91 to 100).
Consider `CCCOc1nc(-c2cccc(OC(F)F)c2)c2cc(C)sc2n1` [6-40], for which the “Herbicidal effect Brassica juncea (herbicidal index)” value in the assay on Brassica juncea was 5 (91 to 100). Also, in the assay on Ipomoea purpurea, the “Herbicidal effect Ipomoea purpurea (herbicidal index)” value is recorded as 5 (91 to 100). Moreover, the “Herbicidal effect Echinochloa crus-galli (herbicidal index)” value in the assay on Echinochloa crus-galli is 4 (71 to 90).
As for `Cc1cc2c(-c3cccc(Br)c3)nc(OC3CCCC3)nc2s1` [6-61], in the assay with Brassica juncea, the “Herbicidal effect Brassica juncea (herbicidal index)” value is reported as 4 (71 to 90). Besides, in the assay with Ipomoea purpurea, the “Herbicidal effect Ipomoea purpurea (herbicidal index)” value is reported as 4 (71 to 90). For the same compound, the “Herbicidal effect Echinochloa crus-galli (herbicidal index)” value in the assay with Echinochloa crus-galli is given as 4 (71 to 90).
Take `Cc1cc2c(-c3cccc(C(F)(F)F)c3)nc(OC3CCCC3)nc2s1` [6-80]: in the assay with Brassica juncea, the “Herbicidal effect Brassica juncea (herbicidal index)” value is recorded as 5 (91 to 100). In addition, the “Herbicidal effect Ipomoea purpurea (herbicidal index)” value in the assay on Ipomoea purpurea was 5 (91 to 100). In addition, the “Herbicidal effect Echinochloa crus-galli (herbicidal index)” value with Echinochloa crus-galli was 5 (91 to 100).
On to `Cc1cc2c(-c3ccc(F)c(C(F)(F)F)c3)nc(OC3CCCC3)nc2s1` [6-83], for which the “Herbicidal effect Brassica juncea (herbicidal index)” value in the assay on Brassica juncea is 4 (71 to 90). Besides, the “Herbicidal effect Ipomoea purpurea (herbicidal index)” value with Ipomoea purpurea is listed as 5 (91 to 100). Also, the “Herbicidal effect Echinochloa crus-galli (herbicidal index)” value in the assay with Echinochloa crus-galli is given as 5 (91 to 100).
Regarding `Cc1cc2c(-c3cccc(OC(F)(F)F)c3)nc(OC3CCCC3)nc2s1` [6-85], the “Herbicidal effect Brassica juncea (herbicidal index)” value in the assay with Brassica juncea is 4 (71 to 90). For the same compound, the “Herbicidal effect Ipomoea purpurea (herbicidal index)” value with Ipomoea purpurea was 5 (91 to 100). Besides, the “Herbicidal effect Echinochloa crus-galli (herbicidal index)” value in the assay with Echinochloa crus-galli is listed as 5 (91 to 100).
With `C#CC(C)Oc1nc(-c2cccc(C(F)(F)F)c2)c2cc(C)sc2n1` (stereo not drawn) [6-90], the “Herbicidal effect Brassica juncea (herbicidal index)” value with Brassica juncea is listed as 5 (91 to 100). The “Herbicidal effect Ipomoea purpurea (herbicidal index)” value in the assay with Ipomoea purpurea is 5 (91 to 100). The “Herbicidal effect Echinochloa crus-galli (herbicidal index)” value in the assay on Echinochloa crus-galli is given as 5 (91 to 100).
As for `C=CCCOc1nc(-c2cccc(C(F)(F)F)c2)c2cc(C)sc2n1` [6-92], the “Herbicidal effect Brassica juncea (herbicidal index)” value with Brassica juncea was 5 (91 to 100). In addition, the “Herbicidal effect Ipomoea purpurea (herbicidal index)” value with Ipomoea purpurea is recorded as 4 (71 to 90). For the same compound, the “Herbicidal effect Echinochloa crus-galli (herbicidal index)” value in the assay on Echinochloa crus-galli is 5 (91 to 100).
On to `Cc1cc2c(-c3cccc(C(F)(F)F)c3)nc(OCCF)nc2s1` [6-96], for which the “Herbicidal effect Brassica juncea (herbicidal index)” value in the assay on Brassica juncea is on record as 5 (91 to 100). Besides, in the assay on Ipomoea purpurea, the “Herbicidal effect Ipomoea purpurea (herbicidal index)” value was 5 (91 to 100). The “Herbicidal effect Echinochloa crus-galli (herbicidal index)” value with Echinochloa crus-galli is listed as 4 (71 to 90).
With `Cc1cc2c(-c3cccc(C(F)(F)F)c3)nc(OCC(F)(F)F)nc2s1` [6-97], the “Herbicidal effect Brassica juncea (herbicidal index)” value in the assay on Brassica juncea is listed as 5 (91 to 100). Further, in the assay on Ipomoea purpurea, the “Herbicidal effect Ipomoea purpurea (herbicidal index)” value is 5 (91 to 100). The “Herbicidal effect Echinochloa crus-galli (herbicidal index)” value with Echinochloa crus-galli is given as 5 (91 to 100).
For `Cc1cc2c(-c3cccc(C(F)(F)F)c3)nc(OCC(Cl)(Cl)Cl)nc2s1` [6-98], the “Herbicidal effect Brassica juncea (herbicidal index)” value in the assay on Brassica juncea was 4 (71 to 90). For the same compound, the “Herbicidal effect Ipomoea purpurea (herbicidal index)” value with Ipomoea purpurea was 5 (91 to 100). Besides, the “Herbicidal effect Echinochloa crus-galli (herbicidal index)” value in the assay on Echinochloa crus-galli was 5 (91 to 100).
Regarding `Cc1cc2c(-c3cccc(OC(F)(F)F)c3)nc(OCC(F)F)nc2s1` [6-109], in the assay with Brassica juncea, the “Herbicidal effect Brassica juncea (herbicidal index)” value is 5 (91 to 100). Further, the “Herbicidal effect Ipomoea purpurea (herbicidal index)” value in the assay on Ipomoea purpurea was 4 (71 to 90). Further, in the assay on Echinochloa crus-galli, the “Herbicidal effect Echinochloa crus-galli (herbicidal index)” value is 5 (91 to 100).
`Cc1cc2c(-c3cccc(OC(F)(F)F)c3)nc(OCC(F)(F)C(F)F)nc2s1` [6-112]: the “Herbicidal effect Brassica juncea (herbicidal index)” value in the assay on Brassica juncea is reported as 5 (91 to 100). In addition, in the assay with Ipomoea purpurea, the “Herbicidal effect Ipomoea purpurea (herbicidal index)” value is recorded as 5 (91 to 100). Also, the “Herbicidal effect Echinochloa crus-galli (herbicidal index)” value in the assay with Echinochloa crus-galli was 5 (91 to 100).
As for `Cc1cc2c(-c3cccc(SC(F)(F)F)c3)nc(OCC(F)(F)F)nc2s1` [6-115], the “Herbicidal effect Brassica juncea (herbicidal index)” value in the assay on Brassica juncea is listed as 5 (91 to 100). Moreover, the “Herbicidal effect Ipomoea purpurea (herbicidal index)” value in the assay with Ipomoea purpurea is 5 (91 to 100). The “Herbicidal effect Echinochloa crus-galli (herbicidal index)” value with Echinochloa crus-galli is reported as 5 (91 to 100).
For the compound `Cc1cc2c(-c3cccc(OC(F)F)c3)nc(OCC(F)(F)C(F)F)nc2s1` [6-125], in the assay on Brassica juncea, the “Herbicidal effect Brassica juncea (herbicidal index)” value is 5 (91 to 100). In the assay on Ipomoea purpurea, the “Herbicidal effect Ipomoea purpurea (herbicidal index)” value was 5 (91 to 100). In addition, the “Herbicidal effect Echinochloa crus-galli (herbicidal index)” value in the assay on Echinochloa crus-galli is on record as 5 (91 to 100).
Take `COCC(C)Oc1nc(-c2cccc(C(F)(F)F)c2)c2cc(C)sc2n1` (stereo not drawn) [6-142]: the “Herbicidal effect Brassica juncea (herbicidal index)” value in the assay on Brassica juncea is recorded as 4 (71 to 90). The “Herbicidal effect Ipomoea purpurea (herbicidal index)” value in the assay on Ipomoea purpurea is listed as 5 (91 to 100). The “Herbicidal effect Echinochloa crus-galli (herbicidal index)” value in the assay with Echinochloa crus-galli is 5 (91 to 100).
For `Cc1cc2c(-c3cccc(C(F)(F)F)c3)nc(OC3CCOC3)nc2s1` (stereo not drawn) [6-184], the “Herbicidal effect Brassica juncea (herbicidal index)” value with Brassica juncea is 4 (71 to 90). The “Herbicidal effect Ipomoea purpurea (herbicidal index)” value in the assay on Ipomoea purpurea is recorded as 5 (91 to 100). Further, the “Herbicidal effect Echinochloa crus-galli (herbicidal index)” value in the assay with Echinochloa crus-galli is on record as 5 (91 to 100).
On to `Cc1cc2c(-c3cccc(C(F)(F)F)c3)nc(OCc3ccco3)nc2s1` [6-187], for which the “Herbicidal effect Brassica juncea (herbicidal index)” value with Brassica juncea is 5 (91 to 100). In addition, in the assay on Ipomoea purpurea, the “Herbicidal effect Ipomoea purpurea (herbicidal index)” value was 5 (91 to 100). Further, the “Herbicidal effect Echinochloa crus-galli (herbicidal index)” value in the assay with Echinochloa crus-galli is 4 (71 to 90).
For the compound `Cc1cc2c(-c3cccc(C(F)(F)F)c3)nc(-n3cccn3)nc2s1` [6-192], the “Herbicidal effect Brassica juncea (herbicidal index)” value with Brassica juncea is recorded as 4 (71 to 90). Moreover, the “Herbicidal effect Ipomoea purpurea (herbicidal index)” value in the assay with Ipomoea purpurea is recorded as 5 (91 to 100). Moreover, in the assay with Echinochloa crus-galli, the “Herbicidal effect Echinochloa crus-galli (herbicidal index)” value is listed as 4 (71 to 90).
Turning to `Cc1cc2c(-c3cccc(C(F)(F)F)c3)nc(-n3cncn3)nc2s1` [6-193], the “Herbicidal effect Brassica juncea (herbicidal index)” value with Brassica juncea was 4 (71 to 90). For the same compound, in the assay with Ipomoea purpurea, the “Herbicidal effect Ipomoea purpurea (herbicidal index)” value was 5 (91 to 100). In the assay with Echinochloa crus-galli, the “Herbicidal effect Echinochloa crus-galli (herbicidal index)” value was 4 (71 to 90).
As to `Cc1cc2c(-c3cccc(C(F)(F)F)c3)nc(-n3ccnc3C)nc2s1` [6-194], the “Herbicidal effect Brassica juncea (herbicidal index)” value in the assay with Brassica juncea is listed as 5 (91 to 100). In addition, the “Herbicidal effect Ipomoea purpurea (herbicidal index)” value in the assay on Ipomoea purpurea is listed as 5 (91 to 100). Further, the “Herbicidal effect Echinochloa crus-galli (herbicidal index)” value in the assay on Echinochloa crus-galli is recorded as 4 (71 to 90).
Turning to `Cc1cc2c(Oc3cccc(OC(F)(F)F)c3)nc(-n3ccc(C(F)(F)F)n3)nc2s1` [6-202], the “Herbicidal effect Brassica juncea (herbicidal index)” value with Brassica juncea is 4 (71 to 90). In addition, the “Herbicidal effect Ipomoea purpurea (herbicidal index)” value with Ipomoea purpurea is reported as 5 (91 to 100). Besides, the “Herbicidal effect Echinochloa crus-galli (herbicidal index)” value with Echinochloa crus-galli is 4 (71 to 90).

The values above are taken from patent US20070010402A1, “Novel herbicides, usage thereof, novel thienopyrimidine derivatives, intermediates of the same, and process for production thereof” (NIHON NOHYAKU CO., LTD.,, priority 2002, published 2007).
